From patent US20120010178A1, “METHODS AND COMPOUNDS FOR TREATMENT OF NEURODEGENERATIVE DISORDERS” (PRESIDENT AND FELLOWS OF HARVARD COLLEGE, priority 2008, published 2012)
Entries after “also recorded” stand apart in the source; their conditions may differ. Where two headings read alike, the source gives them in different places.

Experiments:
[1] = molecular target: T1, GSK3b (Ser-9 phosphorylation) (Homo sapiens, UniProt P49841); assay: p-GSK(Ser9) phosphorylation in patient fibroblasts (western blot / immunofluorescence); assay type: cell-based
T1 construct: endogenous in cells; host or cells: SMA patient fibroblasts (GM09677), starved in 0.5% FBS before treatment
T1 sequence (P49841 whole entry): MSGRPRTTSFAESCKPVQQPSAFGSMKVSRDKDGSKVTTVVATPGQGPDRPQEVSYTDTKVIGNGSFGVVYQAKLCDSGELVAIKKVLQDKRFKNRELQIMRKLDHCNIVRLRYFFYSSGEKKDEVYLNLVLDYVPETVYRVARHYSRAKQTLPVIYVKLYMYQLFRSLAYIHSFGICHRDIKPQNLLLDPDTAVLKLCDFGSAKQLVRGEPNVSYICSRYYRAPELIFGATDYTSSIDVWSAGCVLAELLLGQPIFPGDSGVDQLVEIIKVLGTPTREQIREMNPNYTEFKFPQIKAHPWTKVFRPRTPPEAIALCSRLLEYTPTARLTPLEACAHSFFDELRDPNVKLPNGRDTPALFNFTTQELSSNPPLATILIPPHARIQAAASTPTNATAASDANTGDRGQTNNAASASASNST
Procedure: (§1) Compounds were stored at appropriate temperature and dissolved accordingly to the manufacturers (Tocris, Enzo, EMD and Sigma-Aldrich) in DMSO (Sigma-Aldrich), unless stated otherwise (Monensin Na in EtOH, DMPQ in water). Growth factors and PDGF neutralizing antibodies (R&D Systems) were reconstituted with buffers recommended by the supplier. For generation of the dose curves, 1×10^3 fibroblasts were plated on to 96-well Greiner Senso plates (VWR) and treated with compounds on the second day then fixed and stained at the indicated time points. For GSK inhibitors and performing p-GSK3b(Ser9) detection, two days after plating growth media containing 5% FBS was replaced to the media with FBS reduced down to 0.5%, to starve cells for 72 hours. Addition of the GSK inhibitors was done in 5% FBS enriched media. As previously described, starvation increases levels of constitutively activate GSK3b kinase, allowing to achieve a more dramatic inhibitory effect when GSK inhibitors are added together with growth factors that are also known to inhibit GSK by Ser-9 phosphorylation. […] For all compounds and growth factors control wells received solvent in amount equivalent to the highest concentration of the compound in a dose curve. For PDGF inhibitory studies, cells were pre-treated with kinase inhibitors for 2 hours and PDGF was added with a fresh kinase inhibitor solution and incubated for an additional 3 days.

SMN [2] = assay: High-content fibroblast screen for compounds that modulate SMN level; conditions: human fibroblasts, 2-3 days with compound;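 note: Anti-SMN immunostaining with confocal imaging of nuclear and cytoplasmic SMN and gem counts, tested at 0.1, 1 and 10 uM, fold change relative to negative control wells on each plate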
Procedure: Human fibroblasts were incubated for 2-3 days with compounds from annotated collections. Cells were fixed and stained with an anti-SMN antibody. Confocal imaging was used to quantify SMN fluorescence in nucleus and cytoplasm and count Gems. Data were collected and subsequently analyzed by clustering compounds by suspected mechanism of action and chemical structure.
Following optimization of assay conditions on day 0, total of 500 human fibroblasts (GM09677 line) per well were seeded in 384-well plates, on day 3 they were treated with compounds (robot CyBio) from the annotated collections and on the 5 day plates were fixed and stained (robot MAPD) with an anti-SMN antibody and secondary antibody conjugated with 448 fluorophore (FIG. 19a). Compounds from the libraries were added in duplicate at three final concentrations of 10, 1 and 0.1 uM.
SMN detection was done on the automated confocal microscope Opera PerkinElmer with separate fluorescent exposures to 488 nM laser for and a UV light source to detect nuclei stained with Hoechst 33258 with a 20× objective.
After scanning on the Opera, an XML file extraction workflow, designed with Inforsense KDE, was used to assemble the data from multiple replicate plates of each HCS experiment including the quantitative parameters described above and chemical identities, chemical concentrations and indications of which wells were used for positive and negative controls. […] The fold-induction of SMN intensity values for each well treated with a library chemical were normalized to the SMN average intensity in multiple negative control wells per plate.
Since it is not known which form of SMN increase is the most essential, hits that scored in a duplicate at least in two different parameters greater than 1.3 fold at any of the three concentrations were selected (FIG. 19d). […] Further, 220 compounds were screened in the absence of anti-SMN primary antibody with the same assay conditions, to filter out the fluorescent compounds.

SMN [3] = assay: SMN immunofluorescence quantification (cytoplasm, nucleus, GEMs) in fibroblasts from SMA patients; assay type: cell-based, human; conditions: for levels of cytoplasmic and nuclear SMN (in words): SMA patient fibroblasts, substance alone
Procedure: Specifically, fibroblasts from patients suffering from SMA were treated with Ionomycin (a channel modulator), Ouabain (a cardiac glycoside and channel modulator), PDGF, SAHA (an HDAC inhibitor), Lactacystin (a proteasome inhibitor) or WIN 55,212-2 (a cannabinoid receptor […] and GPCR ligand) for 72 hours. The cells were fixed with methanol/acetone and stained with Pharmingen BD antibodies, followed by 488 AlexaFluor staining. Images were obtained with 60× lens on Zeiss LSM510 META on an inverted confocal microscope.
For example, fibroblasts from patients suffering from SMA were treated with Ouabain, Digoxin or Lanatoside at a concentration of 0, 2.5 nM, 5 nM, 10 nM, 20 nM, 40 nM, 80 nM, […] for 72 hours. The cells were fixed with methanol/acetone and stained with Pharmingen BD antibodies, followed by 488 AlexaFluor staining. Images were obtained with 60× lens on Zeiss LSM510 META on an inverted confocal microscope.
An assay was established for high-content evaluation of SMN protein level in different cellular compartments after treatment with small molecules. SMN protein was visualized by immunofluorescent staining and multiple fields from each plate well were scanned by an automated confocal Opera microscope. […] For each well, the algorithm generated quantitative parameters representing number of cells, as well as SMN fluorescent intensity per cell in cytoplasm, nucleus, number and intensity of GEMs (FIG. 15). […] During the assay transfer to the robotic platform fixation with the ice cold methanol was technically limited, therefore to preserve the maximum possible window we chose to perform the screen on parental fibroblast with PFA fixation.
For fibroblast assays, human fibroblasts lines GM09677 (derived from patient with SMA type 1 disease) and GM03814 (derived from unaffected parental SMA carriers) were used (Coriell Cell Repositories). […] For secondary assays cells from GM09677 line were used.
Fibroblasts were grown in MEM media (Invitrogen) supplemented with 5% Fetal Bovine Serum (FBS, Invitrogen), 2 mM glutamine and 1% penicillin-streptomycin (100 U/ml) in a presence of 5% CO2 at 37° C. For drug treatments, cells were plated and treated 24 h later with 10 μM MG132 (Biomol International), […] Calpeptin (Biomol International), 10 mM ammonium chloride, 1 μM myristoylated PKI, or vehicle for the designated times.
Compounds were stored at appropriate temperature and dissolved accordingly to the manufacturers (Tocris, Enzo, EMD and Sigma-Aldrich) in DMSO (Sigma-Aldrich), unless stated otherwise (Monensin Na in EtOH, DMPQ in water). Growth factors and PDGF neutralizing antibodies (R&D Systems) were reconstituted with buffers recommended by the supplier. For generation of the dose curves, 1×10^3 fibroblasts were plated on to 96-well Greiner Senso plates (VWR) and treated with compounds on the second day then fixed and stained at the indicated time points. For GSK inhibitors and performing p-GSK3b(Ser9) detection, two days after plating growth media containing 5% FBS was replaced to the media with FBS reduced down to 0.5%, to starve cells for 72 hours. Addition of the GSK inhibitors was done in 5% FBS enriched media.

SMN [4] = assay: Inhibition of PDGF-stimulated SMN increase in fibroblasts by kinase/receptor inhibitors; assay type: cell-based, human; conditions: SMA patient fibroblasts, PDGF plus inhibitor or neutralizing antibody
Procedure: Fibroblasts from patients suffering from SMA were treated with PDGF at a concentration of 0, 0.3 ng/ml, 0.63 ng/ml, 1.25 ng/ml, 2.5 ng/ml, 5 ng/ml, 10 ng/ml or 20 ng/ml, in the absence or in the presence of 25 uM DMPQ or 25 uM AG-1296 respectively for 72 hours. The levels of both cytoplasmic and nuclear SMN were detected and quantified using the method described in Example 2.
(§2) Fibroblasts from patients suffering from SMA were either control treated or treated with PDGF at a concentration of 0, 0.63 ng/ml, 1.25 ng/ml, 2.5 ng/ml, 5 ng/ml, 10 ng/ml or 20 ng/ml, in the absence or in the presence of 50 uM LY294002 or 2 uM P1-103 respectively for 72 hours. The levels of both cytoplasmic and nuclear SMN were detected and quantified using the method described in Example 2.
as §2, with “of” for “of 50 uM LY294002 or”, “uM Papamycin” for “uM P1-103 respectively”, “Example x.” for “Example 2.”
A range of concentrations were tested in order not to miss the effects. SMN level were evaluated by Opera Evoteck in each cellular compartment and to assess the cell numbers that are summarized in the Table 3.
as §1

PC12 cells = conditions: cited from earlier work
SMN [5] = assay: SMN levels in mouse (ES-cell derived) motor neurons; assay type: cell-based; conditions: for SMN levels in motor neurons (in words): mouse motor neurons
Procedure: Mouse HB9-GFP derived SMN deficient motor neuron cells were incubated for 2 days with compounds from libraries and collections.
Motor neurons were produced from mouse ES-cells expressing cherry fluorescent protein (CFP) under the control of the motor neuron-selective Hb9 promoter, as previously described (Wichterle et al., 2002).
GFP expressing motor neurons were derived from mouse ES cells as described below. After growing for approximately 1 week, motor neurons were treated with allsterpaullone. Two days after treatment with allsterpaullone, cells were fixed and stained with SMN antibody or GFP antibody.
mES cells were differentiated into motor neurons according to methods adapted from Wichterle et. al., Cell (2002), 110:385-397. Briefly, mES cells were grown to 70-80% confluence in 10-cm plates (Falcon) in ES cell medium. To form embryoid bodies, cells were washed once with PBS to eliminate mES medium and then incubated with 1 ml of 0.25% trypsin (GIBCO) for 5-10 min at 21-25° C. (RT). Cells were then resuspended in 10 ml of DM1 medium (DMEM-F12, GIBCO), 10% knockout serum (GIBCO), penicillin, streptomycin, glutamine (GIBCO) and 2-mercaptoethanol (GIBCO), counted and plated at a concentration of 200,000 cells per ml in Petri dishes (Falcon). Two days later, embryoid bodies were collected and resuspended into new Petri dishes containing DM1 medium supplemented with RAc (100 nM; stock 1 mM in DMSO, Sigma) and HhAg (100 nM). […] treatment was repeated with the same concentration of RAc (100 nM) and high concentration of HhAg (1 μM). On day 6, the embryoid bodies were collected in a 15-ml Falcon tube, and incubated in Earle's balanced salt solution with 20 units of Papain and 1,000 units of DNase I (Worthington Biochemical) for 10 min at 37° C. The mixture was then triturated with a 10-ml pipette and centrifugated for 5 min at 800 rpm. The resulting cell pellet was washed with PBS and resuspended in F12 medium (F12 medium, GIBCO) with 2% fetal bovine serum (GIBCO), B-27 supplement (GIBCO), (GDNF and BDNF, 20 ng ml^−1, R&D Systems). The cells were counted and plated on poly-ornithine coated 96-well plates (VWR).

motor neurons = assay: Motor neuron survival (mouse motor neurons, compound treatment); assay type: cell-based
Procedure: Mouse motor neurons were treated with […] inhibitors. The levels of both cytoplasmic and nuclear SMN were detected and quantified using the method described in Example 2. The results shown in FIG. 14b indicate that […] inhibitors increase motor neuron survival.
Another way of assessing motor neuron survival is by withdrawing the neurotrophic factors from the media. Briefly, motor neurons are grown in media containing neurotrophic factors. The neurotrophic factors are then withdrawn from the growth media, e.g., cells transferred to media having no neurotrophic factors or neurotrophic factor containing media exchanged with neurotrophic factors lacking media. The compound of interest is added and motor neurons are counted on a daily basis.

COc1ccc(CNC(=O)Nc2ncc([N+](=O)[O-])s2)cc1 [AR-A014418]
p-GSK-Ser9 phosphorylation (in words) ([1]; patient fibroblasts): promoted phosphorylation of p-GSK-Ser9 | SMN level in fibroblast screen (increase or decrease) (SMN [2]): SMN is increase | SMN level fold increase (SMN [3]; at a concentration of 23 μM): 2 fold

COc1cc(OC)c2cc(-c3ccncc3)cnc2c1.Cl.Cl [DMPQ]
PDGF-stimulated SMN increase in presence of inhibitor (in words) (SMN [4]): sufficient to prevent PDGF effect on SMN; also recorded: abrogated; also recorded: blocked; also recorded: abolished | SMN level in fibroblast screen (increase or decrease) (SMN [2]): decreased SMN | levels of cytoplasmic and nuclear SMN (in words) (SMN [3]): decreases | levels of cytoplasmic and nuclear SMN (in words) (SMN [3]; listed as DMPQ dihydrochloride): decrease

Cn1cc(C2=C(c3ccc(Cl)cc3Cl)C(=O)NC2=O)c2ccccc21 [SB216763]
protection from EGTA induced death (PC12 cells): able to protect PC12 cells from EGTA induced death

CC(/C=C/C(=O)NO)=C\[C@@H](C)C(=O)c1ccc(N(C)C)cc1 [Trichostatin]
effect on GEMs (number / intensity, in words) (SMN [3]; fibroblasts): increased GEM counts at the lower concentrations | nuclear SMN at the higher dosage (in words) (SMN [3]; fibroblasts, higher dosage): increased nuclear SMN predominantly | SMN levels in motor neurons (in words) (SMN [5]): increase SMN | SMN levels in motor neurons (in words) (SMN [5]; listed as Trichastatin): increase SMN levels

COc1cc2c(cc1OC)[C@@H]1C(=O)c3ccc4c(c3O[C@@H]1CO2)C=CC(C)(C)O4 [deguelin]
spot intensity in ES-derived motor neurons (SMN [5]): decrease | SMN levels in motor neurons (in words) (SMN [5]): decrease

O=C1Cc2c([nH]c3ccc(Br)cc23)-c2ccccc2N1 [kenpaullone, 9-bromopaullone]
motor neuron survival (in words) (motor neurons): promote motor neuron survival | SMN levels in motor neurons (in words) (SMN [5]): without increasing SMN protein levels

C=C(C)[C@H]1Cc2c(ccc3c2O[C@@H]2COc4cc(OC)c(OC)cc4[C@@H]2C3=O)O1 [roteonone]
spot intensity in ES-derived motor neurons (SMN [5]): decrease | SMN levels in motor neurons (in words) (SMN [5]): decrease

CHIR98014
p-GSK-Ser9 phosphorylation (in words) [1]: promoted phosphorylation of p-GSK-Ser9 | SMN level fold increase (SMN [3]): over 2.5 fold
